In test [1] the target is T1, CGRP receptor (Homo sapiens, UniProt O60894+Q16602). The test is described as follows: CGRP radioligand binding assay ([125I]-CGRP displacement, SK-N-MC homogenate). Further details: endogenous in cells; host or cells: SK-N-MC cells (homogenate/membrane pellet). To be noted: displacement of [125I]-CGRP, room temperature 2 h. Summed up: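 SK-N-MC cell homogenate (5 μg/well) was incubated 2 h at room temperature with [125I]-CGRP (diluted to 60 pM before addition) in 50 mM Tris-Cl pH 7.5, 5 mM MgCl2, 0.005% Triton X-100 plus protease inhibitors. Bound radioactivity was collected by filtration; 1 μM beta-CGRP defined non-specific binding. IC50 is 50% radioligand displacement.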
T1 sequence (Q16602 23-461): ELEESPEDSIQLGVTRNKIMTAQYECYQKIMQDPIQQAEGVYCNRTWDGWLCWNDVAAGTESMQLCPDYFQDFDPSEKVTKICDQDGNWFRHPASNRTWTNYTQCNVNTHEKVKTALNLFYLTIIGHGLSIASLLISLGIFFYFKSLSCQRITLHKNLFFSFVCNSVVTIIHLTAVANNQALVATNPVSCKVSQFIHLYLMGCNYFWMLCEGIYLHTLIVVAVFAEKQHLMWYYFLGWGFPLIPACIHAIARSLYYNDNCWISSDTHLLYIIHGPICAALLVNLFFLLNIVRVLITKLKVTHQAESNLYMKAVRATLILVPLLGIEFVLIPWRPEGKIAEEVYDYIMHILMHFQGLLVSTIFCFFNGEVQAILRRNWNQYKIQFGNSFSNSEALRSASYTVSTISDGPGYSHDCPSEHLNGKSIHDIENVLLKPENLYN
T1 sequence (O60894 27-148): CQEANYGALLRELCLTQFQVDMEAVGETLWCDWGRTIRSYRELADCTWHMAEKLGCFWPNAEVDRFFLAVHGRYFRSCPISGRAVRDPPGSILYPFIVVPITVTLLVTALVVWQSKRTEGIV
(Displacement assays read how much labelled ligand stays bound in the presence of the test substance.)

The target of test [2] is T1, CGRP receptor. Briefly: Cyclic AMP functional antagonism assay in SK-N-MC cells. It is filed as cell-based. Set-up: SK—N-MC cells that endogenously express the human CGRP receptor; endogenous in cells; host or cells: SK-N-MC cells. The settings on record: inhibition of 0.3 nM CGRP-induced cyclic AMP formation, 15 min pre-incubation, read-out: cAMP Function IC50. The procedure: Cyclic AMP Functional Antagonism Assay. Antagonism of the compounds of invention was determined by measuring the formation of cyclic AMP (adenosine 3′5′-cyclic monophosphate) in SK—N-MC cells that endogenously express the human CGRP receptor. CGRP receptor complex is coupled with Gs protein and CGRP binding to this complex leads to the cyclic AMP production via Gs—dependent activation of an adenylate cyclase (Juaneda C et al., TiPS, 2000; 21:432-438; incorporated by reference herein). Consequently, CGRP receptor antagonists inhibit CGRP—induced cyclic AMP formation in SK—N-MC cells (Doods H et al., Br J Pharmacol, 2000; 129(3):420-423); incorporated by reference herein). For cyclic AMP measurements SK—N-MC cells were incubated with 0.3 nM CGRP alone or in the presence of various concentrations of the compounds of invention for 30 min at room temperature. Compounds of invention were pre-incubated with SK—N-MC cells for 15 min before the addition of CGRP to allow receptor occupancy (Edvinsson et al., Eur J Pharmacol, 2001, 415:39-44; incorporated by reference herein). Cyclic AMP was extracted using the lysis reagent and its concentration was determined by radioimmunoassay using RPA559 cAMP SPA Direct Screening Assay Kit (Amersham Pharmacia Biotech). IC50 values were calculated using Excel fit.

Regarding `O=C(NC1Cc2ccc3[nH]ncc3c2CN(Cc2ccncc2)C1=O)N1CCC(N2Cc3ccccc3NC2=O)CC1` (centres unmarked) [Example 28, 4-(2-Oxo-1,4-dihydro-2H-quinazolin-3-yl)-piperidine-1-carboxylic acid (8-oxo-9-pyridin-4-ylmethyl-3,6,7,8,9,10-hexahydro-2,3,9-triaza-cyclohepta[e]inden-7-yl)-amide], the half-inhibitory concentration (IC50) at CGRP receptor [1] and on CGRP receptor [2] was 10 to 100 nM each time. Consider `O=C(C[C@@H]1Cc2cc(Cl)c3[nH]ncc3c2CN(Cc2ncc[nH]2)C1=O)N1CCC(N2Cc3ccccc3NC2=O)CC1` [Example 54, (S)-9-((1H-Imidazol-2-yl)methyl)-4-chloro-7-(2-oxo-2-(4-(2-oxo-1,2-dihydroquinazolin-3(4H)-yl)piperidin-1-yl)ethyl)-6,7,9,10-tetrahydroazepino[3,4-e]indazol-8(3H)-one], for which the IC50 at CGRP receptor [1] and at CGRP receptor [2] was 0.1 to 10 nM in each case.

Take `CC(C)(C)CN1Cc2c(cc(Cl)c3[nH]ncc23)C[C@@H](NC(=O)N2CCC(N3Cc4ccccc4NC3=O)CC2)C1=O` [Example 20, 4-(2-Oxo-1,4-dihydro-2H-quinazolin-3-yl)-piperidine-1-carboxylic acid [4-chloro-9-(2,2-dimethyl-propyl)-8-oxo-3,6,7,8,9,10-hexahydro-2,3,9-triaza-(R)-cyclohepta[e]inden-7-yl]-amide]: the IC50 on CGRP receptor [1] and on CGRP receptor [2] was 0.1 to 10 nM throughout. As for `CC(C)(C)CN1Cc2c(cc(Cl)c3[nH]ncc23)C[C@@H](CC(=O)N2CCC(N3Cc4cccc(F)c4NC3=O)CC2)C1=O` [Example 40, (S)-4-Chloro-7-(2-(4-(8-fluoro-2-oxo-1,2-dihydroquinazolin-3(4H)-yl)piperidin-1-yl)-2-oxoethyl)-9-neopentyl-6,7,9,10-tetrahydroazepino[3,4-e]indazol-8(3H)-one], the concentration for half-maximal inhibition (IC50) on CGRP receptor [1] and on CGRP receptor [2] was 0.1 to 10 nM throughout. Regarding `O=C(C[C@@H]1Cc2cc(Cl)c3[nH]ncc3c2CN(Cc2ccncc2)C1=O)N1CCC(c2cc3ccccc3[nH]c2=O)CC1` [Example 52, (S)-4-Chloro-7-(2-oxo-2-(4-(2-oxo-1,2-dihydroquinolin-3-yl)piperidin-1-yl)ethyl)-9-(pyridin-4-ylmethyl)-6,7,9,10-tetrahydroazepino[3,4-e]indazol-8(3H)-one], the IC50 at CGRP receptor [1] and on CGRP receptor [2] was 0.1 to 10 nM throughout.

As to `CC(C)(C)CN1Cc2c(ccc3[nH]ncc23)CC(NC(=O)N2CCC(N3Cc4ccccc4NC3=O)CC2)C1=O` (centres unmarked) [Example 22, 4-(2-Oxo-1,4-dihydro-2H-quinazolin-3-yl)-piperidine-1-carboxylic acid [9-(2,2-dimethyl-propyl)-8-oxo-3,6,7,8,9,10-hexahydro-2,3,9-triaza-cyclohepta[e]inden-7-yl]-amide], the half-inhibitory concentration (IC50) at CGRP receptor [1] and at CGRP receptor [2] was 0.1 to 10 nM throughout.

As to `CC(C)(C)CN1C(=O)C(CC(=O)N2CCC(N3Cc4ccccc4NC3=O)CC2)Cc2cc3[nH]ncc3cc21` (centres unmarked) [Example 6, 5-Neopentyl-7-(2-oxo-2-(4-(2-oxo-1,2-dihydroquinazolin-3(4H)-yl)piperidin-1-yl)ethyl)-7,8-dihydro-1H-pyrazolo[3,4-g]quinolin-6(5H)-one], the 50% inhibitory concentration (IC50) on CGRP receptor [1] and at CGRP receptor [2] was 10 to 100 nM each time.

In the case of `CC(C)(C)CN1Cc2c(cc(Cl)c3[nH]ncc23)C[C@@H](CC(=O)N2CCC(n3cc(-c4ccccn4)[nH]c3=O)CC2)C1=O` [Example 45, (S)-4-Chloro-9-neopentyl-7-(2-oxo-2-(4-(2-oxo-4-(pyridin-2-yl)-2,3-dihydroimidazol-1-yl)piperidin-1-yl)ethyl)-6,7,9,10-tetrahydroazepino[3,4-e]indazol-8(3H)-one], the IC50 on CGRP receptor [1] and on CGRP receptor [2] was 0.1 to 10 nM in each case. With `Cc1cc2c(c3cn[nH]c13)CN(C)C(=O)C(NC(=O)N1CCC(N3Cc4ccccc4NC3=O)CC1)C2` (centres unmarked) [Example 30, 4-(2-Oxo-1,4-dihydro-2H-quinazolin-3-yl)-piperidine-1-carboxylic acid (4,9-dimethyl-8-oxo-3,6,7,8,9,10-hexahydro-2,3,9-triaza-cyclohepta[e]inden-7-yl)-amide], the IC50 at CGRP receptor [1] and at CGRP receptor [2] was 10 to 100 nM in each case. As for `CC(C)(C)CN1Cc2c(ccc3[nH]ncc23)C[C@@H](CC(=O)N2CCC(c3cc4ccccc4[nH]c3=O)CC2)C1=O` [Example 42, (S)-9-Neopentyl-7-(2-oxo-2-(4-(2-oxo-1,2-dihydroquinolin-3-yl)piperidin-1-yl)ethyl)-6,7,9,10-tetrahydroazepino[3,4-e]indazol-8(3H)-one], the half-inhibitory concentration (IC50) at CGRP receptor [1] and at CGRP receptor [2] was 10 to 100 nM in each case.

Turning to `O=C(C[C@@H]1Cc2cc(Cl)c3[nH]ncc3c2CN(Cc2ccncc2)C1=O)N1CCC(N2Cc3ccccc3NC2=O)CC1` [Example 49, (S)-4-Chloro-7-(2-oxo-2-(4-(2-oxo-1,2-dihydroquinazolin-3(4H)-yl)piperidin-1-yl)ethyl)-9-(pyridin-4-ylmethyl)-6,7,9,10-tetrahydroazepino[3,4-e]indazol-8(3H)-one], the 50% inhibitory concentration (IC50) at CGRP receptor [1] and on CGRP receptor [2] was 0.1 to 10 nM in each case. For `CC(C)(C)CN1Cc2c(ccc3[nH]ncc23)C[C@@H](CC(=O)N2CCC(N3Cc4cccc(F)c4NC3=O)CC2)C1=O` [Example 39, (S)-7-(2-(4-(8-Fluoro-2-oxo-1,2-dihydroquinazolin-3(4H)-yl)piperidin-1-yl)-2-oxoethyl)-9-neopentyl-6,7,9,10-tetrahydroazepino[3,4-e]indazol-8(3H)-one], the IC50 on CGRP receptor [1] and on CGRP receptor [2] was 10 to 100 nM throughout.

`O=C(N[C@@H]1Cc2cc3cn[nH]c3cc2CN(Cc2ccccc2)C1=O)N1CCC(N2Cc3ccccc3NC2=O)CC1` [Example 37, (R)-N-(8-Benzyl-7-oxo-1,5,6,7,8,9-hexahydroazepino[4,3-f]indazol-6-yl)-4-(2-oxo-1,2-dihydroquinazolin-3(4H)-yl)piperidine-1-carboxamide]: the concentration for half-maximal inhibition (IC50) on CGRP receptor [1] fell in the range of 0.1 to 10 nM; at CGRP receptor [2], 10 to 100 nM. For `CC(C)CN1Cc2c(ccc3[nH]ncc23)CC(NC(=O)N2CCC(N3Cc4ccccc4NC3=O)CC2)C1=O` (centres unmarked) [Example 24, 4-(2-Oxo-1,4-dihydro-2H-quinazolin-3-yl)-piperidine-1-carboxylic acid (9-isobutyl-8-oxo-3,6,7,8,9,10-hexahydro-2,3,9-triaza-cyclohepta[e]inden-7-yl)-amide] the same measures were 10 to 100 nM and 10 to 100 nM. For the molecule `CC(C)(C)CN1Cc2c(cc(Cl)c3[nH]ncc23)C[C@@H](CC(=O)N2CCC3(CC2)NC(=O)Nc2ccccc23)C1=O` [Example 46], the IC50 on CGRP receptor [1] and on CGRP receptor [2] was 0.1 to 10 nM in each case. For `CC(C)(C)CN1Cc2c(cc(Cl)c3[nH]ncc23)C[C@@H](CC(=O)N2CCC(c3cc4cnccc4[nH]c3=O)CC2)C1=O` [Example 80, 1-[[(7S)-4-chloro-9-(2,2-dimethylpropyl)-3,6,7,8,9,10-hexahydro-8-oxoazepino[3,4-e]indazol-7-yl]acetyl]-4-(1,2-dihydro-2-oxo-1,6-naphthyridin-3-yl)-piperidine], the IC50 on CGRP receptor [1] and at CGRP receptor [2] was 10 to 100 nM throughout. In turn, `CC(C)(C)CN1Cc2c(ccc3[nH]ncc23)CC(N/C(=N/C#N)N2CCC(N3Cc4ccccc4NC3=O)CC2)C1=O` (centres unmarked) [Example 88, (E, Z)-N′-cyano-N-(9-neopentyl-8-oxo-3,6,7,8,9,10-hexahydroazepino[3,4-e]indazol-7-yl)-4-(2-oxo-1,2-dihydroquinazolin-3(4H)-yl)piperidine-1-carboxamidine] returned an IC50 on CGRP receptor [1] of 0.1 to 10 nM. Take `O=C(C[C@@H]1Cc2cc(Cl)c3[nH]ncc3c2CN(CC(F)(F)F)C1=O)N1CCC(c2cc3ccccc3[nH]c2=O)CC1` [Example 90, (S)-4-chloro-7-(2-oxo-2-(4-(2-oxo-1,2-dihydroquinolin-3-yl)piperidin-1-yl)ethyl)-9-(2,2,2-trifluoroethyl)-6,7,9,10-tetrahydroazepino[3,4-e]indazol-8(3H)-one]: the IC50 on CGRP receptor [1] lay in the range of 0.1 to 10 nM.

The molecule `O=C1Nc2ccccc2C2(CCN(C(=O)NC3Cc4ccc5[nH]ncc5c4CN(Cc4ccncc4)C3=O)CC2)N1` (centres unmarked) [Example 29, N-[9-pyridin-4-ylmethyl-8-oxo-3,6,7,8,9,10-hexahydroazepino[3,4-e]indazol-7-yl]-2′-oxo-2′,3′-dihydro-1H,1′H-spiro[piperidine-4,4′-quinazoline]-1-carboxamide] registered a concentration for half-maximal inhibition (IC50) at CGRP receptor [1] of 100 to 1000 nM. The same measure, in the same setting: with `CC(C)(C)CN1Cc2c(cc(Cl)c3[nH]ncc23)C[C@@H](CC(=O)N2CCC(c3cc4ccc(F)cc4[nH]c3=O)CC2)C1=O` [Example 120] the figure was 0.1 to 10 nM.

In turn, `CC(C)(C)CN1Cc2c(cc(Cl)c3[nH]ncc23)C[C@@H](CC(=O)N2CCC(C3=Cc4ccccc4NS3(=O)=O)CC2)C1=O` [Example 92] came in with an IC50 at CGRP receptor [1] of 10 to 100 nM. `CC(C)(C)CN1Cc2c(cc(Cl)c3[nH]ncc23)C[C@@H](CC(=O)N2CCC(N3Cc4cccnc4NC3=O)CC2)C1=O` [Example 78] gave an IC50 at CGRP receptor [1] of 0.1 to 10 nM.

As usually defined, the IC50 is the concentration that gives 50% inhibition.

The record behind these values is patent publication US7384931B2, “Constrained compounds as CGRP-receptor antagonists” (Bristol-Myers Squibb Company, priority 2004, dated 2008).
